Laboratory results taken from ChEMBL document CHEMBL1201862, “PubChem BioAssay data set” (2004).
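48-hour exposure; five concentrations; linearly interpolated endpoints. Here, GI50 denotes the concentration required for 50% inhibition of growth.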 The source made the active and inactive calls. No stated cut-off is given here; in the data, active = GI50 up to about 1.1 µM and inactive = higher.

Experiments:
Experiment in all cases: growth of human tumour cells (NCI), 48 h
[1] = test system: ACHN
[2] = test system: COLO 205
[3] = test system: HCC 2998
[4] = test system: HL-60
[5] = test system: HOP-62
[6] = test system: Hs-578T
[7] = test system: M14
[8] = test system: OVCAR-3
[9] = test system: OVCAR-5
[10] = test system: SF-295
[11] = test system: SF-539
[12] = test system: SK-MEL-28
[13] = test system: SNB-19
[14] = test system: SNB-75
[15] = test system: SR
[16] = test system: SW-620
[17] = test system: TK-10
[18] = test system: U-251
[19] = test system: UACC-62
[20] = test system: UO-31

Structure (SMILES) | GI50 [1] | GI50 [2] | GI50 [3] | GI50 [4] | GI50 [5] | GI50 [6] | GI50 [7] | GI50 [8] | GI50 [9] | GI50 [10] | GI50 [11] | GI50 [12] | GI50 [13] | GI50 [14] | GI50 [15] | GI50 [16] | GI50 [17] | GI50 [18] | GI50 [19] | GI50 [20]
C=Cc1nc2c(Cl)ncnc2n1Cc1ccccc1 | 1.86 µM (inactive) | 1.53 µM (inactive) | 2.61 µM (inactive) | 2.72 µM (inactive) | 3.34 µM (inactive) | 13.2 µM (inactive) | 3.88 µM (inactive) | 2.58 µM (inactive) | 14.7 µM (inactive) | 15.6 µM (inactive) | 2.13 µM (inactive) | 3.1 µM (inactive) | 14.8 µM (inactive) | 13.6 µM (inactive) | 2.56 µM (inactive) | 5.94 µM (inactive) | 2.11 µM (inactive) | 10.5 µM (inactive) | 6.68 µM (inactive) | 2.51 µM (inactive)
C=C(C)C(CC=C(C)C)Cc1c(O)cc(OC)c2c1OC(c1ccc(O)cc1O)C(O)C2=O (stereo not given) | 20.4 µM (inactive) | 16.3 µM (inactive) | 16.8 µM (inactive) | > 100 µM (inactive) | 17.3 µM (inactive) | 17.2 µM (inactive) | 22 µM (inactive) | 16.7 µM (inactive) | 17.7 µM (inactive) | 15 µM (inactive) | 15.9 µM (inactive) | 21.1 µM (inactive) | 15.5 µM (inactive) | 17.2 µM (inactive) | > 100 µM (inactive) | 16.6 µM (inactive) | 21.8 µM (inactive) | 14.5 µM (inactive) | 16.2 µM (inactive) | 15.9 µM (inactive)
FC(F)(F)c1n[nH]c(SCc2ccc(Cl)cc2)n1 | > 100 µM (inactive) | > 100 µM (inactive) | > 100 µM (inactive) | > 100 µM (inactive) | > 100 µM (inactive) | 94.8 µM (inactive) | > 100 µM (inactive) | > 100 µM (inactive) | > 100 µM (inactive) | > 100 µM (inactive) | > 100 µM (inactive) | > 100 µM (inactive) | > 100 µM (inactive) | > 100 µM (inactive) | > 100 µM (inactive) | > 100 µM (inactive) | > 100 µM (inactive) | > 100 µM (inactive) | > 100 µM (inactive) | 59.4 µM (inactive)
CCC(=O)C(CCN1CCC2(CCCc3ccccc32)CC1)(c1ccccc1)c1ccccc1 | 2.85 µM (inactive) | 1.34 µM (inactive) | 2.64 µM (inactive) | 1.57 µM (inactive) | 3.28 µM (inactive) | 2.33 µM (inactive) | 1.87 µM (inactive) | 2.2 µM (inactive) | 3.74 µM (inactive) | 2.02 µM (inactive) | 2.95 µM (inactive) | 4.65 µM (inactive) | 4.75 µM (inactive) | 2.95 µM (inactive) | 1.66 µM (inactive) | 2.87 µM (inactive) | 3.77 µM (inactive) | 2.62 µM (inactive) | 3.72 µM (inactive) | 2.39 µM (inactive)
CNC(=O)N1CN(c2ccccc2)C2(CCN(CCCC3(c4ccc(F)cc4)OCCO3)CC2)C1=O | > 100 µM (inactive) | > 100 µM (inactive) | > 100 µM (inactive) | > 100 µM (inactive) | > 100 µM (inactive) | > 100 µM (inactive) | > 100 µM (inactive) | > 100 µM (inactive) | > 100 µM (inactive) | > 100 µM (inactive) | > 100 µM (inactive) | > 100 µM (inactive) | > 100 µM (inactive) | > 100 µM (inactive) | > 100 µM (inactive) | > 100 µM (inactive) | > 100 µM (inactive) | > 100 µM (inactive) | > 100 µM (inactive) | > 100 µM (inactive)
C(=C\c1ccccc1)/C=N/c1nc2cc3sc(/N=C/C=C/c4ccccc4)nc3cc2s1 | > 55.8 µM (inactive) | 1.06 µM (active) | > 100 µM (inactive) | 12.1 µM (inactive) | 99.3 µM (inactive) | > 100 µM (inactive) | > 100 µM (inactive) | 24.3 µM (inactive) | > 78.7 µM (inactive) | > 78 µM (inactive) | > 100 µM (inactive) | > 100 µM (inactive) | > 100 µM (inactive) | > 100 µM (inactive) | 2.95 µM (inactive) | > 45.3 µM (inactive) | > 88.9 µM (inactive) | 25 µM (inactive) | 99.8 µM (inactive) | 34.4 µM (inactive)
COc1cc2c(c(OC)c1)C(=O)O[C@H](C)CCCC/C=C/C2 | 12.5 µM (inactive) | 10.9 µM (inactive) | 15.8 µM (inactive) | 0.824 µM (active) | 8.15 µM (inactive) | 20.9 µM (inactive) | 12.7 µM (inactive) | 9.38 µM (inactive) | 15.1 µM (inactive) | 13.6 µM (inactive) | 10.9 µM (inactive) | 23.2 µM (inactive) | 16.2 µM (inactive) | 14.1 µM (inactive) | > 53.5 µM (inactive) | 7.94 µM (inactive) | 15.8 µM (inactive) | 9.79 µM (inactive) | 8.93 µM (inactive) | 13.5 µM (inactive)
C(/Cc1ccc2c(c1)OCO2)=N\N=C1NCCCN1 | 28 µM (inactive) | 57 µM (inactive) | 41.7 µM (inactive) | 31.6 µM (inactive) | 28.4 µM (inactive) | > 100 µM (inactive) | 32.4 µM (inactive) | 80.2 µM (inactive) | 59 µM (inactive) | 38.2 µM (inactive) | 50.5 µM (inactive) | > 100 µM (inactive) | > 100 µM (inactive) | 15.2 µM (inactive) | 22.5 µM (inactive) | > 100 µM (inactive) | > 100 µM (inactive) | 75.7 µM (inactive) | > 100 µM (inactive) | 38.2 µM (inactive)
COc1cc(C2S/C(=C/c3ccccc3)C(=O)N2c2ccc([N+](=O)[O-])cc2)cc(OC)c1OC (stereo not given) | > 21 µM (inactive) | 26.1 µM (inactive) | > 100 µM (inactive) | 40.6 µM (inactive) | 92.7 µM (inactive) | > 100 µM (inactive) | 26.1 µM (inactive) | > 78 µM (inactive) | 15.5 µM (inactive) | 58.1 µM (inactive) | > 100 µM (inactive) | > 100 µM (inactive) | > 100 µM (inactive) | > 100 µM (inactive) | 9.27 µM (inactive) | > 100 µM (inactive) | > 100 µM (inactive) | > 100 µM (inactive) | 3.91 µM (inactive) | 47 µM (inactive)
